{"source": "patent US8017786B2", "about": "“Substituted β-phenyl-α-hydroxy-propanoic acid, synthesis method and use thereof” (Northwest University, priority 2006, dated 2011)", "type_in_all_cases": "in vivo, rat", "key": {"[1]": {"system": "rats with middle cerebral artery occlusion", "assay": "Cerebral microcirculatory blood flow in rats with middle cerebral artery occlusion", "conditions": "1 mL/kg ip", "description": "60 SD rats with a body weight of 220±20 g were randomly divided into normal control group, model control group, salvianic acid injection group (ip. 1 mL/kg), and group of bornyl β-(3,4-dihydroxylphenyl)-α-hydroxylpropionate ester at a small, middle and large dose respectively (ip. 5, 15, and 35 mg/kg). The rats of normal group and model group were administered with equal-volume of physiologic saline by ip. The rats were anesthetized by intraperitoneal injection of 1% pentobarbital sodium at an amount of 40 mg/kg, then placed at supine position, head fixed, and cut skin along cervical middle line. Trachea cannula, was inserted into the rats and they were allowed to spontaneous respire. Right common jugular vein and common carotid artery were isolated and a suture was introduced for later use. Animals were fixed on a rat stereotaxic apparatus, a cranial window with a size of 6×8 mm was opened at the right temple with a dental drill, after hemostasis, cerebral dura mater was cut open with scissors to expose cerebral pia mater. The window was covered and sealed with glass and dental cement, and the laser probe of a laser-doppler microcirculatory blood flow meter was fixed on the cranial window. Then the animals were fixed at lateral position, the right common carotid artery was lifted, ligated at the proximal part and carefully cut with scissors, a nylon suture having a diameter of about 0.3 mm was introduced into the artery. The distance between the artery cut and the paropia of the rats was marked before the suture was introduced. […] When the suture arrived at middle cerebral artery, an abrupt decrease of the microcirculatory blood flow would be observed. After the observation of a decrease in the microcirculatory blood flow, the suture was further penetrated by about 1 mm, and the distal end of the cut and the suture in the artery were ligated securely. Spare suture was cut-off. After the end of the test, it was checked whether the nylon suture blocked the initiation site of the middle cerebral artery, and the data of any animal whose artery was not blocked were cancelled. The animals of the control group were not treated. After the cranial window was prepared, the probe of J I2200 type laser-doppler microcirculatory blood flow meter was fixed at the cranial window, and the probe was maintained without displacement and rotation during the whole test. The microcirculatory blood flows before ligation and 5, 15, 30, 45 and 60 min after ligation were recorded, and the data of the animals in the drug-treatment groups were recorded at the same time points. The mean microcirculatory blood flow observed within 1 min at each time point was designated as the microcirculatory blood flow of the respective time point."}, "[2]": {"system": "rats with cardiac ischemia reperfusion (I/R) injury", "assay": "Myocardial infarction areas caused by cardiac muscle I/R", "conditions": "1 mL/kg, 5 days; ischemia 30 min, reperfusion 30 min", "description": "(§1) 52 SD rats having a body weight of 220±20 g were randomly divided into model control group, salviannic acid injection group (in 1 mL/kg), and group of bornyl β-(3,4-dihydroxylphenyl)-α-hydroxylpropionate ester at a small, middle and large dose (ip 5, 15, 35 mg/kg). The rats of the normal group and the model control group were ip administered with equal-volume of physiologic saline. The rats of all groups were administered for consecutive 5 days. When the rats were administered for the last time, they were simultaneously anesthetized with 1.5% pentobarbital sodium (ip 45 mg/kg), then a catheter was inserted into the right carotid artery, and connected via a transducer to an eight-channeled physiological recorder. Tracheal cannula was performed, and the ventilation rate was maintained at 60 times/min. The chest was opened, a 6/0 suture was used to form a loop at a site 1˜2 mm from the root of the anterior descending coronary artery, and a plastic pipe was introduced through the loop, then the loop was tightened up. The change of electrocardiogram was observed. An increase or decrease of ST indicated the success of ligation. The color of the myocardial tissue below the ligation suture became darker. 30 minutes later, the plastic pipe was pulled out to allow coronary artery blood flowing again and cause hyperemia of local tissue during reperfusion. For the groups subjected to ischemia for 30 min and reperfusion for 30 min, the myocardial infarction areas were recorded before the test, after ischemia for 1 min and 30 min, and after reperfusion for 30 min; for the groups subjected to ischemia for 30 min and reperfusion for 2 h, cardiac tissue samples were taken and fixed using 10% formalin, embedded with paraffin, serially sliced into sections with a thickness of 4 μm, and separately subjected to immunohistochemistry tests; the rats of the sham operation group were subjected only to the introduction of suture but their coronary arteries were not ligated.\nAfter the rats were subjected to ischemia and reperfusion for 30 minutes, their anterior descending coronaries were ligated again, then they were sacrificed, their hearts were removed promptly, and 0.5 mL of 1% evans blue was injected into heart chambers via aorta to distinguish the ischemic regions and the non-ischemic regions. After the heart atrium and right ventricle were cut-off, the heart was refrigerated at −20° C. for 30 min, then placed in a tailor-made slice groove, and cut along the long axis to form 2 mm slices. The slices were immersed in 1% TTC phosphoric acid buffer solution (pH7.4), and incubated at 37° C. for 30 min to distinguish risky regions and necrotic regions. Then the slices were fixed with 10% formaldehyde for 24 h to enhance staining color for contrast photography. After the above treatment, the myocardial tissue was divided into: normal myocardia in blue, ischemic myocardia in light red, and necrotic myocardion in gray. A computer image analysis software was used to calculate the percentage of the area of the infarct myocardial region (nec) based on the area of the risky myocardial region (aar, i.e., ischemic myocardia, including ischemic infarct region and ischemic non-infarct region) (nec/aar), and the percentage of the area of the infarct myocardial region based on the whole area of the myocardia (nec/lv) to indicate the degree of infarct, as well as the percentage of the area of the risky myocardia based on the area of the left ventricle (aar/lv)."}, "Bax": {"system": "Bax", "assay": "Immunohistochemistry protein expression in I/R myocardial tissue: Bax", "conditions": "1 mL/kg, 5 days; ischemia 30 min, reperfusion 2 h", "description": "as §1\n(§2) Standard immunohistochemistry ABC and SP methods were employed for staining. Bax: anti-rabbit polyclonal antibody (Santa CruzBio. Inc.) at a dilution of 1:200; […]: anti-rabbit polyclonal antibody (TBD Tianjin Biotechnological Center). At a dilution of […]; caspase-3: anti-rabbit polyclonal antibody (Normarkers Fromont, Calif.), at a dilution of 1:200; MMP-2: anti-murine monoclonal antibody (NormarkersFromont, Calif.) at a dilution of 1:200; PPARγ: anti-caprine polyclonal antibody (Santa Cruz Bio. Inc.), at a dilution of 1:500. The specific procedures were performed in accordance with the instructions of the ABC and SP kits, DAB was used for color development, and neutral resin was used for mounting. PBS was used instead of the first antibody as a negative control. Cells with positive expression of the test polypeptides were of brown-yellow color, with MMP-2 protein being present in acytoplasm, Bcl-2 expressed in nuclear membrane and cytoplasm, Bax mainly in cytoplasm and partially in nucleus, and caspase-3 mainly in nucleus and partially in cytoplasm. CMIAS image analysis system was used for random selection of fields of slices and automatic selection of sites for analysis, and statistic analysis was performed by using mean optical density values or integral optical density values of the obtained myocardial tissue slices."}, "Bcl-2": {"system": "Bcl-2", "assay": "Immunohistochemistry protein expression in I/R myocardial tissue: Bcl-2", "conditions": "1 mL/kg, 5 days; ischemia 30 min, reperfusion 2 h", "description": "as §1, §2"}, "caspase-3": {"system": "caspase-3", "assay": "Immunohistochemistry protein expression in I/R myocardial tissue: caspase-3", "conditions": "1 mL/kg, 5 days; ischemia 30 min, reperfusion 2 h", "description": "as §1, §2"}, "MMP-2": {"system": "MMP-2", "assay": "Immunohistochemistry protein expression in I/R myocardial tissue: MMP-2", "conditions": "1 mL/kg, 5 days; ischemia 30 min, reperfusion 2 h", "description": "as §1, §2"}, "PPARγ": {"system": "PPARγ", "assay": "Immunohistochemistry protein expression in I/R myocardial tissue: PPARγ", "conditions": "1 mL/kg, 5 days; ischemia 30 min, reperfusion 2 h", "description": "as §1\nStandard immunohistochemistry ABC and SP methods were employed for staining. Bax: anti-rabbit polyclonal antibody (Santa CruzBio. Inc.) at a dilution of 1:200; […]: anti-rabbit polyclonal antibody (TBD Tianjin Biotechnological Center). At a dilution of […]; caspase-3: anti-rabbit polyclonal antibody (Normarkers Fromont, Calif.), at a dilution of 1:200; MMP-2: anti-murine monoclonal antibody (NormarkersFromont, Calif.) at a dilution of 1:200; PPARγ: anti-caprine polyclonal antibody (Santa Cruz Bio. Inc.), at a dilution of 1:500. The specific procedures were performed in accordance with the instructions of the ABC and SP kits, DAB was used for color development, and neutral resin was used for mounting. PBS was used instead of the first antibody as a negative control. […]"}}}
{"smiles": "O=C(O)C(O)Cc1ccc(O)c(O)c1", "note": "(stereo not drawn) [Salvianic acid, β-(3,4-dihydroxyphenyl)-α-hydroxyl-propionic acid, reference compound]", "values": [{"measurement": "Microcirculatory blood flow", "setting": "[1]; 5 min after ligation", "value": "10.8 ± 3.6", "unit": "mL"}, {"measurement": "Microcirculatory blood flow", "setting": "[1]; 15 min after ligation", "value": "20.1 ± 6.9", "unit": "mL"}, {"measurement": "Microcirculatory blood flow", "setting": "[1]; 30 min after ligation", "value": "31.2 ± 9.5", "unit": "mL"}, {"measurement": "Microcirculatory blood flow", "setting": "[1]; 45 min after ligation", "value": "33.0 ± 6.8", "unit": "mL"}, {"measurement": "Microcirculatory blood flow", "setting": "[1]; 60 min after ligation", "value": "29.4 ± 6.9", "unit": "mL"}, {"measurement": "aar/lv", "setting": "[2]", "value": "50.21 ± 7.10", "unit": "%"}, {"measurement": "nec/aar", "setting": "[2]", "value": "49.87 ± 7.83", "unit": "%"}, {"measurement": "nec/lv", "setting": "[2]", "value": "41.41 ± 5.49", "unit": "%"}, {"measurement": "Bax protein expression, OD value", "setting": "Bax", "value": "0.08 ± 0.02"}, {"measurement": "Bcl-2 protein expression, OD value", "setting": "Bcl-2", "value": "0.18 ± 0.04"}, {"measurement": "Caspase-3 protein expression, OD value", "setting": "caspase-3", "value": "0.21 ± 0.12"}, {"measurement": "MMP-2 protein expression, OD value", "setting": "MMP-2", "value": "0.12 ± 0.05"}, {"measurement": "PPARγ protein expression, OD value", "setting": "PPARγ", "value": "0.34 ± 0.08"}]}
